This assay concerns v6A3 cells. The assay can be described thus: MTT assay, v6A3 cells. The format is cell-based. Conditions: Homo sapiens, PC-3M, 48 h, 5000 cells per well, triplicate, 562 nm, after continuous passage for one month, P< 0.05 vs PC3M, read-out: DOX IC50 of v6A3. A general note: Formazan colour is commonly taken as a measure of viable cells.

From paper PMC5689723, “Targeting aggressive prostate cancer-associated CD44v6 using phage display selected peptides” (Oncotarget, 2017) come the findings set out here.

The term IC50 denotes the concentration at which inhibition is half-maximal. In the case of `COc1cccc2c1C(=O)c1c(O)c3c(c(O)c1C2=O)C[C@@](O)(C(=O)CO)C[C@@H]3O[C@H]1C[C@H](N)[C@H](O)[C@H](C)O1` [DOX, doxorubicin], the IC50 was 140 nM.
